What all share (assay type): biochemical
Assay [1] addresses T1, human macrophage elastase (HME/hMMP-12) (Homo sapiens, UniProt P39900).
T1 construct: 0.5 nM HME; purchased R&D Systems 917-MP
Briefly: In vitro HME inhibition test (standard or high-sensitivity). The note with it: in some cases mean values. Put shortly:
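Fluorogenic assay: 0.5 nM autoactivated HME with 5 µM Mca-Pro-Leu-Gly-Leu-Glu-Glu-Ala-Dap(Dnp)-NH2 in HEPES pH 7.4 buffer (NaCl, CaCl2, ZnCl2, EDTA, Brij), 2 h at 37 °C; ex 323/em 393 nm. IC50 from fluorescence versus concentration. High-sensitivity format: ~0.05 nM enzyme, ~16 h incubation.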

Another assay deals with T2, MMP-3 (Homo sapiens, UniProt P08254).
T2 construct: purchased R&D Systems 513-MP
Briefly: In vitro MMP-3 inhibition test. The text has this:
(§1) The MMP-mediated amidolytic cleavage of a suitable peptide substrate leads to an increase in fluorescent light here too. The signal intensity of the fluorescent light is directly proportional to the enzyme activity. The active concentration of a test compound at which half the enzyme is inhibited (50% signal intensity of the fluorescent light) is reported as the IC50 value.
Recombinant MMP-3 (from R&D Systems, 513-MP) is chemically activated in accordance with the manufacturer's instructions using APMA. 1 μl of the test compound to be analysed (as a solution in DMSO, suitable concentrations, for example, 1 nM to 30 μM) is pipetted into 24 μl of activated enzyme (final concentration, for example, 2 nM) in reaction buffer (50 mM Tris/HCl pH 7.5, 10 mM CaCl2, 150 mM NaCl, 0.05% Brij®-35) in a white 384-hole microtiter plate (MTP). The enzymatic reaction is started by adding the intramolecularly quenched Mca-Arg-Pro-Lys-Pro-Val-Glu-Nval-Trp-Arg-Lys(Dnp)-NH2 substrate (final concentration, for example, 10 μM; R&D Systems, ES-002), so as to result in a total test volume of 50 The course of the MMP-3 reaction is measured by measuring the fluorescence intensity (excitation 320 nm, emission 410 nm) over a suitable period of time (for example over 120 min at a temperature of 32° C.).

The next assay deals with T3, MMP-8 (Homo sapiens, UniProt P22894).
T3 construct: purchased R&D Systems 908-MP
Briefly: In vitro MMP-8 inhibition test.
From the text: as §1
Recombinant MMP-8 (from R&D Systems, 908-MP) is chemically activated in accordance with the manufacturer's instructions using APMA. 1 μl of the test compound to be analysed (as a solution in DMSO, suitable concentrations, for example, 1 nM to 30 μM) is pipetted into 24 μl of activated enzyme (final concentration, for example, 0.5 nM) in reaction buffer (50 mM Tris/HCl pH 7.5, 10 mM CaCl2, 150 mM NaCl, 0.05% Brij®-35) in a white 384-hole microtiter plate (MTP). The enzymatic reaction is started by adding the intramolecularly quenched Mca-Pro-Leu-Gly-Leu-Dpa(Dnp)-Ala-Arg-NH2 substrate (final concentration, for example, 10 μM; R&D Systems, ES-001), so as to result in a total test volume of 50 μl. The course of the MMP-8 reaction is measured by measuring the fluorescence intensity (excitation 320 nm, emission 410 nm) over a suitable period of time (for example over 120 min at a temperature of 32° C.).

The target in another assay is T4, MMP-16 (Homo sapiens, UniProt P51512).
T4 construct: purchased R&D Systems 1785-MP
Briefly: In vitro MMP-16 inhibition test.
From the text: as §1
Recombinant MMP-16 (from R&D Systems, 1785-MP) is enzymatically activated in accordance with the manufacturer's instructions using recombinant furin (from R&D Systems, 1503-SE). 1 μl of the test compound to be analysed (as a solution in DMSO, suitable concentrations e.g. 1 nM to 30 μM) is pipetted into 24 μl of activated enzyme (final concentration e.g. 1 nM) in reaction buffer (50 mM Tris/HCl pH 7.5, 10 mM CaCl2, 150 mM NaCl, 0.05% Brij®-35) in a white 384-hole microtiter plate (MTP). The enzymatic reaction is started by adding the intramolecularly quenched Mca-Lys-Pro-Leu-Gly-Leu-Dpa(Dnp)-Ala-Arg-NH2 substrate (final concentration, for example, 5 μM; R&D Systems, ES-010), so as to result in a total test volume of 50 The course of the MMP-16 reaction is measured by measuring the fluorescence intensity (excitation 320 nm, emission 410 nm) over a suitable period of time (for example over 120 min at a temperature of 32° C.).

T2 sequence (P08254 100-477): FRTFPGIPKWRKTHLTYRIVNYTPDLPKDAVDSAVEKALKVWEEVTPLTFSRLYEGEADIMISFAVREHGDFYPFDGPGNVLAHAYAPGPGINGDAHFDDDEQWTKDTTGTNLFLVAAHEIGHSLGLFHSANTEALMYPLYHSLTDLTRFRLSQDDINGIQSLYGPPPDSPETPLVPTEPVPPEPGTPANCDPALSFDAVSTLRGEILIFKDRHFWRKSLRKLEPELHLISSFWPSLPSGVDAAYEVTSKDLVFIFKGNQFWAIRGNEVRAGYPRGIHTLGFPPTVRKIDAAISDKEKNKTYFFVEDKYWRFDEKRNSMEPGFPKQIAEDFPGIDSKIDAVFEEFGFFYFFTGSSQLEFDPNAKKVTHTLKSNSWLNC
T4 sequence (P51512 120-564 limits assumed): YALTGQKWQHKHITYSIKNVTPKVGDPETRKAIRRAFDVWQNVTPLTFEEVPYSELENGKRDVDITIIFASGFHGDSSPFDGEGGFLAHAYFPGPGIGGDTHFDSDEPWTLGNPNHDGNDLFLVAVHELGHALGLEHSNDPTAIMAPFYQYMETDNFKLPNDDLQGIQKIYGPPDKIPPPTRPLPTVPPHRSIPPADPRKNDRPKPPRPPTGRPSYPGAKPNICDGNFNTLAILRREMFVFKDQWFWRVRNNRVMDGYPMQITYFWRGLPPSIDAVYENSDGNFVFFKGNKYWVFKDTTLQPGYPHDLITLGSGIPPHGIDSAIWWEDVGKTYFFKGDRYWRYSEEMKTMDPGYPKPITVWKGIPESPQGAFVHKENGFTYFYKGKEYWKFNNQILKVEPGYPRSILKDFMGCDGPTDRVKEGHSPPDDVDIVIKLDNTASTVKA
T1 sequence (P39900 106-470): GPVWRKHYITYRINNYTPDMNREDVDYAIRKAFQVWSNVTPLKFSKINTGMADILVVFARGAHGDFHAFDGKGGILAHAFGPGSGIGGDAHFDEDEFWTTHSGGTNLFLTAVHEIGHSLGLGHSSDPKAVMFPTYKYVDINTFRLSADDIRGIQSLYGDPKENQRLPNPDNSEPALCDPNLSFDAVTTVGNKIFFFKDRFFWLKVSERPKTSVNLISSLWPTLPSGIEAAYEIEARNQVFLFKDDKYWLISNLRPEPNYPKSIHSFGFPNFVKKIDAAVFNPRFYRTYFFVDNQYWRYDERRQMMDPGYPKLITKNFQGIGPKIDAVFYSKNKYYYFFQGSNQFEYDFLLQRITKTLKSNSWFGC
T3 sequence (P22894 101-467): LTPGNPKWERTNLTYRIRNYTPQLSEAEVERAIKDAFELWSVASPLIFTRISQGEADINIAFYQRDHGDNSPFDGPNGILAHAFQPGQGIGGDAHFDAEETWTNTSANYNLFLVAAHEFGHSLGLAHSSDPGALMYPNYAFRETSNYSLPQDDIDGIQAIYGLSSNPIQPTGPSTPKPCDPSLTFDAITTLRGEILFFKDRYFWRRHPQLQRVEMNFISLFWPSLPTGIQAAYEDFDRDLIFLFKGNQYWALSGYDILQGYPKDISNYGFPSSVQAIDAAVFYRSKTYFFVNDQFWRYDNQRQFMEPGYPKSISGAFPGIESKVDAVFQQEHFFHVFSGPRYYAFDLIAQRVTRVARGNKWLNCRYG

For `Cc1cccc(COc2ccc(C(=O)[C@@H]3CC[C@H](Cn4nnc5ccc(C(F)(F)F)cc5c4=O)[C@H]3C(=O)O)cc2)c1` (single isomer, unassigned) [Example 16, (+)-(1RS,2RS,5SR)-2-{4-[(3-Methylbenzyl)oxy]benzoyl}-5-{[4-oxo-6-(trifluoromethyl)-1,2,3-benzotriazin-3(4H)-yl]methyl}cyclopentanecarboxylic acid], the IC50 in assay [1] was determined as 0.064 nM; at MMP-3 it was 350 nM; on MMP-8 it was 65 nM; on MMP-16, 1700 nM.

As to “(+)-(1RS,2RS,5SR)-2-{4-[Cyclohexyl)methyl)sulphanyl]benzoyl}-5-{[4-oxo-6-(trifluoromethyl)-1,2,3-benzotriazin-3(4H)-yl]methyl}cyclopentanecarboxylic acid [Example 86]”, the IC50 was 0.018 nM in assay [1], 1300 nM at MMP-3, 150 nM on MMP-8 and 14000 nM at MMP-16.

Turning to `O=C(O)[C@H]1[C@H](Cn2nnc3ccccc3c2=O)CC[C@@H]1C(=O)c1ccc(OCCC2CCCCC2)cc1` (racemic) [Example 5, (+/−)-(1RS,2RS,5SR)-2-[4-(2-Cyclohexylethoxy)benzoyl]-5-[(4-oxo-1,2,3-benzotriazin-3(4H)-yl)methyl]cyclopentanecarboxylic acid], the IC50 in assay [1] is 0.07 nM; against MMP-3, 1500 nM; on MMP-8 it was 250 nM; on MMP-16, 2500 nM.

With `Cc1ccc2nnn(C[C@@H]3CC[C@H](C(=O)c4ccc(OCc5cccc(C(F)(F)F)c5)cc4)[C@H]3C(=O)O)c(=O)c2c1` (racemic) [Example 100, (+/−)-(1RS,2SR,5RS)-2-[(6-Methyl-4-oxo-1,2,3-benzotriazin-3(4H)-yl)methyl]-5-(4-{[3-(trifluoromethyl)benzyl]oxy}benzoyl)cyclopentanecarboxylic acid], the IC50 came out at 0.08 nM in assay [1], 1500 nM against MMP-3, 43 nM against MMP-8 and 970 nM on MMP-16.

As for `Cc1cccc(COc2ccc(C(=O)[C@@H]3CC[C@H](Cn4nnc5ccc(C)cc5c4=O)[C@H]3C(=O)O)cc2)c1` (single isomer, unassigned) [Example 98, (+)-(1RS,2RS,5SR)-2-{4-[(3-Methylbenzyl)oxy]benzoyl}-5-[(6-methyl-4-oxo-1,2,3-benzotriazin-3(4H)-yl)methyl]cyclopentanecarboxylic acid], the IC50 in assay [1] was found to be 0.1 nM; against MMP-3, 680 nM; against MMP-8, 64 nM; at MMP-16, 670 nM.

As to `O=C(O)[C@@H]1[C@@H](Cn2nnc3ccc(C(F)(F)F)cc3c2=O)CC[C@H]1C(=O)c1ccc(SCc2cccc(Cl)c2)cc1` (single isomer, unassigned) [Example 77, (+)-(1RS,2RS,5SR)-2-{4-[(3-Chlorobenzyl)sulphanyl]benzoyl}-5-{[4-oxo-6-(trifluoromethyl)-1,2,3-benzotriazin-3(4H)-yl]methyl}cyclopentanecarboxylic acid], the IC50 in assay [1] worked out at 0.04 nM; against MMP-3, 100 nM; on MMP-8, 41 nM; at MMP-16, 3800 nM.

Turning to `O=C(O)[C@@H]1[C@@H](Cn2nnc3ccc(C(F)(F)F)cc3c2=O)CC[C@H]1C(=O)c1ccc(OCc2cccc(N3CCOC3=O)c2)cc1` (single isomer, unassigned) [Example 35, (+)-(1RS,2RS,5SR)-2-(4-{[3-(2-Oxo-1,3-oxazolidin-3-yl)benzyl]oxy}benzoyl)-5-{[4-oxo-6-(trifluoromethyl)-1,2,3-benzotriazin-3(4H)-yl]methyl}cyclopentanecarboxylic acid], the IC50 in assay [1] was found to be 0.013 nM; against MMP-3, 400 nM; at MMP-8, 2 nM; at MMP-16 it was 300 nM.

In the case of `Cc1ccc2nnn(C[C@@H]3CC[C@H](C(=O)c4ccc(OCc5cccc(Cl)c5)cc4)[C@H]3C(=O)O)c(=O)c2c1` (racemic) [Example 103, (+/−)-(1RS,2RS,5SR)-2-{4-[(3-Chlorobenzyl)oxy]benzoyl}-5-[(6-methyl-4-oxo-1,2,3-benzotriazin-3(4H)-yl)methyl]cyclopentanecarboxylic acid], the IC50 in assay [1] was found to be 0.1 nM; against MMP-3, 340 nM; on MMP-8, 41 nM; against MMP-16 it was 14000 nM.

As for `CCCCCCOc1ccc(C(=O)[C@@H]2CC[C@H](Cn3nnc4ccc(C(F)(F)F)cc4c3=O)[C@H]2C(=O)O)cc1` (single isomer, unassigned) [Example 58, (+)-(1RS,2RS,5SR)-2-[4-(Hexyloxy)benzoyl]-5-{[4-oxo-6-(trifluoromethyl)-1,2,3-benzotriazin-3(4H)-yl]methyl}cyclopentanecarboxylic acid], the IC50 in assay [1] stood at 0.027 nM; on MMP-3, 300 nM; on MMP-8 it was 16 nM; against MMP-16, 2300 nM.

Turning to `COc1cccc(COc2ccc(C(=O)[C@H]3CC[C@@H](Cn4nnc5ccc(C)cc5c4=O)[C@@H]3C(=O)O)cc2)c1` (racemic) [Example 106, (+/−)-(1RS,2RS,5SR)-2-{4-[(3-Methoxybenzyl)oxy]benzoyl}-5-[(6-methyl-4-oxo-1,2,3-benzotriazin-3(4H)-yl)methyl]cyclopentanecarboxylic acid], the IC50 in assay [1] came out at 0.078 nM; at MMP-3, 450 nM; against MMP-8 it was 11 nM; against MMP-16, 190 nM.

As for `COC(=O)Nc1cccc(COc2ccc(C(=O)[C@@H]3CC[C@H](Cn4nnc5ccc(C(F)(F)F)cc5c4=O)[C@H]3C(=O)O)cc2)c1` (stereo in doubt) [Example 31, (+)-(1RS,2RS,5SR)-2-[4-({3-[(Methoxycarbonyl)amino]benzyl}oxy)benzoyl]-5-{[4-oxo-6-(trifluoromethyl)-1,2,3-benzotriazin-3(4H)-yl]methyl}cyclopentanecarboxylic acid], the IC50 in assay [1] is 0.012 nM; against MMP-3 it was 280 nM; at MMP-8, 9.1 nM; against MMP-16, 890 nM.

As for `Cc1ccc2nnn(C[C@@H]3CC[C@H](C(=O)c4ccc(OCc5cccc(OC(F)(F)F)c5)cc4)[C@H]3C(=O)O)c(=O)c2c1` (racemic) [Example 109, (+/−)-(1RS,2SR,5RS)-2-[(6-Methyl-4-oxo-1,2,3-benzotriazin-3(4H)-yl)methyl]-5-(4-{[3-(trifluoromethoxy)benzyl]oxy}benzoyl)cyclopentanecarboxylic acid], the IC50 in assay [1] worked out at 0.14 nM; on MMP-3 it was 840 nM; at MMP-8, 87 nM; at MMP-16 it was 3200 nM.

Consider `Cc1ccc2nnn(C[C@@H]3CC[C@H](C(=O)c4ccc(OCc5ccccc5)cc4)[C@H]3C(=O)O)c(=O)c2c1` (racemic) [Example 91, (+/−)-(1RS,2RS,5SR)-2-[4-(Benzyloxy)benzoyl]-5-[(6-methyl-4-oxo-1,2,3-benzotriazin-3(4H)-yl)methyl]cyclopentanecarboxylic acid], for which the IC50 amounted to 0.074 nM in assay [1], 190 nM on MMP-3, 3 nM against MMP-8 and 1700 nM on MMP-16.

For the origin of these results see patent US20170022171A1, “2,5-DISUBSTITUTED CYCLOPENTANECARBOXYLIC ACIDS AND THEIR USE” (Bayer Pharma Aktiengesellschaft, priority 2014, published 2017).
